By pIC50 is commonly meant the IC50 on a negative log10 scale, so that one unit is a factor of ten.

SMILES strings stand for the structures. pIC50: −log10 of the molar value. Where only a bound is given, the exact number is not on record here.

From ChEMBL document CHEMBL1777806, “Three new cytotoxic aryltetralin lignans from Sinopodophyllum emodi” (Bioorg Med Chem Lett, 2011) come the findings set out here.

The subject of one assay is HeLa. Description: Cytotoxicity against human HeLa cells after 72 hrs by MTT assay. It is filed as functional, cell-based. (Formazan colour is commonly taken as a measure of viable cells.)
A further assay relates to KB. Description: Cytotoxicity against human KB cells after 72 hrs by MTT assay. It is filed as functional, cell-based.

`COc1cc([C@@H]2c3cc4c(cc3[C@H](O[C@@H]3O[C@H](COC(C)=O)[C@@H](O)[C@H](O)[C@H]3O)[C@H]3COC(=O)[C@H]23)OCO4)cc(OC)c1OC` [SINOLIGNAN A]: the results for the negative-log IC50 (pIC50) with HeLa and in the assay on KB were 5.42 and 5.06, respectively.
In the case of `COc1cc([C@@H]2c3cc4c(cc3[C@@H](O[C@@H]3O[C@H](CO)[C@@H](O)[C@H](O)[C@H]3O)[C@H]3COC(=O)[C@H]23)OCO4)cc(OC)c1O`, the values for the pIC50 in the assay on HeLa and in the assay with KB were 7.32 and over 8.00, respectively.
For `COc1cc([C@@H]2c3cc4c(cc3[C@H](O)[C@H]3COC(=O)[C@H]23)OCO4)cc(OC)c1OC(C)=O`, the pIC50 in the assay on HeLa is 7.12; in the assay on KB, 7.30.
For `COc1cc([C@@H]2c3cc4c(cc3C[C@H]3COC(=O)[C@@H]32)OCO4)cc(OC)c1O` [4'-DEMETHYLDEOXYPODOPHYLLOTOXIN], in that order: 7.13 and 8.11.
As to `COc1cc([C@@H]2c3cc4c(cc3[C@H](O[C@@H]3O[C@H](CO[C@@H]5O[C@H](CO)[C@@H](O)[C@H](O)[C@H]5O)[C@@H](O)[C@H](O)[C@H]3O)[C@H]3COC(=O)[C@@H]23)OCO4)cc(OC)c1O` [SINOLIGNAN B], the pIC50 in the assay on HeLa and with KB was under 4.00 throughout.
As to `COc1cc([C@@H]2c3cc4c(cc3C(=O)[C@@H]3COC(=O)[C@H]23)OCO4)cc(OC)c1OC` [ISOPICROPODOPHYLLONE], the pIC50 was 4.49 in the assay on HeLa and under 4.00 in the assay on KB.
For `COc1cc([C@@H]2c3cc(O)c(O)cc3[C@H](O)[C@H]3COC(=O)[C@H]23)cc(OC)c1OC` [6,7-O,O-DEMETHYLENEPODOPHYLLOTOXIN], the pIC50 in the assay on HeLa and in the assay with KB was under 4.00 each time.
Consider `COc1cc(-c2c3c(c(O)c4cc5c(cc24)OCO5)COC3=O)cc(OC)c1OC` [DEHYDROPODOPHYLLOTOXIN], for which the pIC50 in the assay with HeLa is 5.08; with KB, 5.01.
Regarding `COc1cc([C@@H]2c3cc4c(cc3[C@@H](O[C@@H]3O[C@@H]5CO[C@@H](C)O[C@H]5[C@H](O)[C@H]3O)[C@H]3COC(=O)[C@H]23)OCO4)cc(OC)c1O` [ETOPOSIDE], the pIC50 was 5.40 in the assay with HeLa and 5.00 with KB.
In the case of `COc1cc([C@@H]2c3cc4c(cc3C[C@H]3COC(=O)[C@@H]32)OCO4)cc(OC)c1OC` [DESOXYPODOPHYLLOTOXIN], the values for the negative-log IC50 (pIC50) in the assay with HeLa and in the assay on KB were 8.16 and 8.05, respectively.
`COc1cc([C@@H]2c3cc(O)c(O)cc3[C@H](O)[C@H]3COC(=O)[C@H]23)cc(OC)c1O`: the pIC50 with HeLa was 4.10; in the assay on KB, under 4.00.
For the compound `COc1cc([C@@H]2c3cc4c(cc3[C@H](O[C@@H]3O[C@H](CO[C@@H]5O[C@H](CO)[C@@H](O)[C@H](O)[C@H]5O)[C@@H](O)[C@H](O)[C@H]3O)[C@H]3COC(=O)[C@@H]23)OCO4)cc(OC)c1OC`, the pIC50 in the assay on HeLa and in the assay on KB was under 4.00 throughout.
As for `COc1cc([C@@H]2c3cc4c(cc3[C@H](O[C@@H]3O[C@H](CO)[C@@H](O)[C@H](O)[C@H]3O)[C@H]3COC(=O)[C@H]23)OCO4)cc(OC)c1O`, the negative logarithm of the IC50 (pIC50) with HeLa is 5.27; in the assay with KB, 5.02.
For `COc1cc([C@@H]2c3cc4c(cc3C[C@H]3COC(=O)[C@@H]32)OCO4)cc(OC)c1O[C@@H]1O[C@H](CO)[C@@H](O)[C@H](O)[C@H]1O`, the pIC50 with HeLa was 6.06; in the assay with KB, 5.68.
In the case of `COc1cc([C@@H]2c3cc4c(cc3[C@H](O)[C@H]3COC(=O)[C@H]23)OCO4)cc(OC)c1O`, the figures for the negative logarithm of the IC50 (pIC50) in the assay on HeLa and in the assay with KB were 7.10 and 7.19, respectively.
For the compound `COc1cc(-c2c3c(c(O)c4cc5c(cc24)OCO5)COC3=O)cc(OC)c1O`, the negative-log IC50 (pIC50) was under 4.00 in the assay on HeLa and 4.07 in the assay on KB.
For the compound `COc1cc([C@@H]2c3cc4c(cc3[C@H](O[C@@H]3O[C@H](CO)[C@@H](O)[C@H](O)[C@H]3O)[C@H]3COC(=O)[C@H]23)OCO4)cc(OC)c1OC`, the pIC50 is 5.18 in the assay on HeLa and 5.03 in the assay on KB.
For `COc1cc([C@@H]2c3cc4c(cc3[C@H](O)[C@H]3COC(=O)[C@H]23)OCO4)cc(OC)c1OC` [PODOFILOX], in that order: 7.16 and 7.25.
